Test results taken from ChEMBL document CHEMBL4414548 (J Med Chem, 2019).
The source made the active and inactive calls. The rule behind the calls is not given here.

Columns and labels:
[1] = target: T1, Non-receptor tyrosine-protein kinase TYK2 (Homo sapiens, UniProt P29597); test: Inhibition of fluorescein-labeled kinase tracer binding to His-TVMV-fused TYK2 JH2 domain (575 to 869 residues) (unknown origin) measured after 90 mins by HTRF assay
[2] = target: T1, Non-receptor tyrosine-protein kinase TYK2; test: Inhibition of TYK2 JH1 domain (unknown origin)
[3] = target: Tyrosine-protein kinase JAK1 (Homo sapiens, UniProt P23458); test: Inhibition of JAK1 JH1 domain (unknown origin)
Chain of Tyrosine-protein kinase JAK1 (P23458 whole entry, the tested form may be a part): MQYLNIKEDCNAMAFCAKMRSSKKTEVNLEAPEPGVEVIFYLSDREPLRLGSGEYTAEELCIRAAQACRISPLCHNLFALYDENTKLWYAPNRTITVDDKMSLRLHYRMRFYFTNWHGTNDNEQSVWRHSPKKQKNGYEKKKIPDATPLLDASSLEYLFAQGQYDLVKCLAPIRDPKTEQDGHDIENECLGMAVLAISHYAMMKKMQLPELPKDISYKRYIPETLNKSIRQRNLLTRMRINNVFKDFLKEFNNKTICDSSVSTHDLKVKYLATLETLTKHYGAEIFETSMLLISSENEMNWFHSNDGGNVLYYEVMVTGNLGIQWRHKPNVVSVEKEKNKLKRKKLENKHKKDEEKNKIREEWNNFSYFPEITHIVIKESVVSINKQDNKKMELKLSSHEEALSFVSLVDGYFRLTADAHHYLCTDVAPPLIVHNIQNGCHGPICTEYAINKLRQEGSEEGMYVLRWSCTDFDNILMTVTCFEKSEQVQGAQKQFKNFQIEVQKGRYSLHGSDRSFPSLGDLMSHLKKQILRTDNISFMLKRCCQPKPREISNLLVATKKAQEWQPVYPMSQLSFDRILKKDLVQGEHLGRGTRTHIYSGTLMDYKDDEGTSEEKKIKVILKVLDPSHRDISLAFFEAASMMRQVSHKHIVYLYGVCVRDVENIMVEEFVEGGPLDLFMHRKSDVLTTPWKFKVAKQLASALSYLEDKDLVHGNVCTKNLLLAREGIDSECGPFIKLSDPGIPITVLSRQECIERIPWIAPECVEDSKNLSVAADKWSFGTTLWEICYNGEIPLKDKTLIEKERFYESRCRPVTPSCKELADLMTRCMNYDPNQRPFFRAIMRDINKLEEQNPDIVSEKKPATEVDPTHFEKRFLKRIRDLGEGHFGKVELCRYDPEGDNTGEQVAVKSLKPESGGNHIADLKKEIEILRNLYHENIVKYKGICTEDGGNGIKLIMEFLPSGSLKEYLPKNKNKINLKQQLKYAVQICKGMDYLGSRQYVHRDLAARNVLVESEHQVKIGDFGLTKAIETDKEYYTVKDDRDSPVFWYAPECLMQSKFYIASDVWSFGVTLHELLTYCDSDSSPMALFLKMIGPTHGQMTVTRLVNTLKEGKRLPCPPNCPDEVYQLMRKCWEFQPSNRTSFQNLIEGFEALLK

[4] = target: Tyrosine-protein kinase JAK2 (Homo sapiens, UniProt O60674); test: Inhibition of JAK2 JH1 domain (unknown origin)
Chain of Tyrosine-protein kinase JAK2 (O60674 whole entry, the tested form may be a part): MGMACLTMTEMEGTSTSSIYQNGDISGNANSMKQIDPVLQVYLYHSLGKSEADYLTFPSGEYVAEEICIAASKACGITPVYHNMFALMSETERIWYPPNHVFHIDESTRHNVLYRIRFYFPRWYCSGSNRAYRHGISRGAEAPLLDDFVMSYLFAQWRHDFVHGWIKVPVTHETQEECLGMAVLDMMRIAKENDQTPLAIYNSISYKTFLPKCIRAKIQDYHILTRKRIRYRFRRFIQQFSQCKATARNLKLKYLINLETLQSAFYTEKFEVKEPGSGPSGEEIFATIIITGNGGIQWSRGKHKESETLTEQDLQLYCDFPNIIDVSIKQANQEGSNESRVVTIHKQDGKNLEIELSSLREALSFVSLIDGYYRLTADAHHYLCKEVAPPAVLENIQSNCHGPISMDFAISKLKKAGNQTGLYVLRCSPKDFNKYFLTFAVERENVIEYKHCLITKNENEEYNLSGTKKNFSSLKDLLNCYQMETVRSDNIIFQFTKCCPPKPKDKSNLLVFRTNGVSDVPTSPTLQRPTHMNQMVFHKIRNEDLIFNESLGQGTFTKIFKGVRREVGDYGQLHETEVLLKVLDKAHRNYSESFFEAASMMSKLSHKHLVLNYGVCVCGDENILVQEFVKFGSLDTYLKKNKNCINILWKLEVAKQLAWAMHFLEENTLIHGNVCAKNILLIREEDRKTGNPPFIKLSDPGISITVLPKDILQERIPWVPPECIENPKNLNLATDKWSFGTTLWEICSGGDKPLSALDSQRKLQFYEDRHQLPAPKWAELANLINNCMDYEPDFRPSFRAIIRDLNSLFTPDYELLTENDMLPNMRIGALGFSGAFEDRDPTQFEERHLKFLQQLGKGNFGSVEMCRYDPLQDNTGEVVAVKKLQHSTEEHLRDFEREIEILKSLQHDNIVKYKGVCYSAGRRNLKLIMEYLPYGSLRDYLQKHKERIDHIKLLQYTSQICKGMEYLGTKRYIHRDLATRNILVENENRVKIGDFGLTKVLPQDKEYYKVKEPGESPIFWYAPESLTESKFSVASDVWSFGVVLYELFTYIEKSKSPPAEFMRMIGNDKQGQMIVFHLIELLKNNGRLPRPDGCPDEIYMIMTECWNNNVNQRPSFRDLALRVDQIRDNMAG

JAK2/TYK2 = JAK2/TYK2 (Homo sapiens, UniProt O60674+P29597); test: Inhibition of TYK2/JAK2 in IL23-stimulated human Kit225 cells by steady-glo luciferase assay
Chain of JAK2/TYK2 (O60674 whole entry): as the sequence (O60674 whole entry, the tested form may be a part) above
Chain of JAK2/TYK2 (P29597 whole entry): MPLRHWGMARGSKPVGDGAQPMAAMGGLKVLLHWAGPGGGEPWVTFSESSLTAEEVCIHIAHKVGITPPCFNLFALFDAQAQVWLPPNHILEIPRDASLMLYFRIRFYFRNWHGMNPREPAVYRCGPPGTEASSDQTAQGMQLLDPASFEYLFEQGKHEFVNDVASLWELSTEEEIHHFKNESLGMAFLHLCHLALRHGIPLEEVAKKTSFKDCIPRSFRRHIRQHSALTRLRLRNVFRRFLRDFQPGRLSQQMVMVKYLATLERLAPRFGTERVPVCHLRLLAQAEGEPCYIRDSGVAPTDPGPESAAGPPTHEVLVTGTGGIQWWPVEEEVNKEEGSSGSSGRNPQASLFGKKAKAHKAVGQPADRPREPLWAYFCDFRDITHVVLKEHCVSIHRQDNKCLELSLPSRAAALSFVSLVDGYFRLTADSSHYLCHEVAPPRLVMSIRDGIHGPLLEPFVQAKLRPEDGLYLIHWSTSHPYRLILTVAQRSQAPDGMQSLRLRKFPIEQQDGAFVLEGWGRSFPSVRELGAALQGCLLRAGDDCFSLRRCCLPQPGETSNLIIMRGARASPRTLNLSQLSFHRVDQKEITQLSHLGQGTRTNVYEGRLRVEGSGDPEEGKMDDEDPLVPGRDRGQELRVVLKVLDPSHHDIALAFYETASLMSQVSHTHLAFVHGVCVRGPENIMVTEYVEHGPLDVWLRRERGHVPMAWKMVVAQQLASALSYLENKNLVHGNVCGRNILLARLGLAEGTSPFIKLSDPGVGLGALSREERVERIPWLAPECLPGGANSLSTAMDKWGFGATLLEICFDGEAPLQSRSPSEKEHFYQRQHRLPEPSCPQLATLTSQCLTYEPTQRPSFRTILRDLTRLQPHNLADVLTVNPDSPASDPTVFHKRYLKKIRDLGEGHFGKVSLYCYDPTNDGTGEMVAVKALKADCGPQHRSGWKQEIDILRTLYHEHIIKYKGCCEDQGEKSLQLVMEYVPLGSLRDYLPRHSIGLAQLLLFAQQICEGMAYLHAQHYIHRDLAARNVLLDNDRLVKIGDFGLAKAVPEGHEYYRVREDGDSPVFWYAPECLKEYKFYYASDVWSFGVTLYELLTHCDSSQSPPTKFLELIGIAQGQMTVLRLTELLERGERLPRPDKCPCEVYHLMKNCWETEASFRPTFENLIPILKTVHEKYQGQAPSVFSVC

JAK1/TYK2 = JAK1/TYK2 (Homo sapiens, UniProt P23458+P29597); test: Inhibition of TYK2/JAK1 in IFNalpha-stimulated human Kit225 cells by steady-glo luciferase assay
Chain of JAK1/TYK2 (P23458 whole entry): as the sequence (P23458 whole entry, the tested form may be a part) above
Chain of JAK1/TYK2 (P29597 whole entry): as the sequence (P29597 whole entry) above

JAK3/JAK1 = JAK3/JAK1 (Homo sapiens, UniProt P23458+P52333); test: Inhibition of JAK1/JAK3 (unknown origin) in IL-2 stimulated cells by cell based assay
Chain of JAK3/JAK1 (P52333 whole entry): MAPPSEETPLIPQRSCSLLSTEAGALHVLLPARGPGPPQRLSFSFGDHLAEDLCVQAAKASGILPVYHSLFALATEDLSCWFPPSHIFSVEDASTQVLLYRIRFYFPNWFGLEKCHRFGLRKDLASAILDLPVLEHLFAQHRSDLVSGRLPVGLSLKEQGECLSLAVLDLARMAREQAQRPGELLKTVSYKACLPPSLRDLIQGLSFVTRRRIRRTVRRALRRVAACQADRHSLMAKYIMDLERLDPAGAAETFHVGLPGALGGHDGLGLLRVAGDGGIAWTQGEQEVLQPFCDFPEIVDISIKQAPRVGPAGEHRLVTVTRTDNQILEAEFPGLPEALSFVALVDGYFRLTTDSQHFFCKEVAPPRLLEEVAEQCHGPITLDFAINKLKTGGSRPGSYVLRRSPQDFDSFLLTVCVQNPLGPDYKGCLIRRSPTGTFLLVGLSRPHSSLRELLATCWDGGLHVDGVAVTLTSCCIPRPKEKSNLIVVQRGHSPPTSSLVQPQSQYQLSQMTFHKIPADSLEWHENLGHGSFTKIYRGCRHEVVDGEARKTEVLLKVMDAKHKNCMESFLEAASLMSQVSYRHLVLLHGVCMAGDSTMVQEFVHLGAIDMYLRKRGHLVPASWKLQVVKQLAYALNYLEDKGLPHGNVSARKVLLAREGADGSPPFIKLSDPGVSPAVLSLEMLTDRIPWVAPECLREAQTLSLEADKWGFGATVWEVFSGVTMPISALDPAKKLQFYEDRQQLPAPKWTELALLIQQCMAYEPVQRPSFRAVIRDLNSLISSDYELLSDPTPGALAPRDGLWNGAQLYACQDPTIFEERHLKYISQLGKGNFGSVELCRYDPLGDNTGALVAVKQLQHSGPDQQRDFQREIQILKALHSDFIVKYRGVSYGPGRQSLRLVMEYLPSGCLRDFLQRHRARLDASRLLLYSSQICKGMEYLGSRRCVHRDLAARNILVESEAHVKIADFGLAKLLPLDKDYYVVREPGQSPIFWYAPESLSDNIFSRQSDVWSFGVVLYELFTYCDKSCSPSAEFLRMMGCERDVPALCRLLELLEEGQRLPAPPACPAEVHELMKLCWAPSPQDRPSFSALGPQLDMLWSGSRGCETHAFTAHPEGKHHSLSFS
Chain of JAK3/JAK1 (P23458 whole entry): as the sequence (P23458 whole entry, the tested form may be a part) above

JAK2/JAK1 = JAK2/JAK1 (Homo sapiens, UniProt O60674+P23458); test: Inhibition of JAK1/JAK2 (unknown origin) in GM-CSF stimulated cells by cell based assay
Chain of JAK2/JAK1 (P23458 whole entry): as the sequence (P23458 whole entry, the tested form may be a part) above
Chain of JAK2/JAK1 (O60674 whole entry): as the sequence (O60674 whole entry, the tested form may be a part) above

[5] = target: T1, Non-receptor tyrosine-protein kinase TYK2; test: Inhibition of TYK2 JH2 (unknown origin) by Scintillation proximity assay
[6] = target: T1, Non-receptor tyrosine-protein kinase TYK2; test: Inhibition of TYK2 JH2 (unknown origin) by morrison titration assay; details: read-out: Ki(app)
[7] = target: T2, Inhibitor of nuclear factor kappa-B kinase subunit beta (Homo sapiens) (UniProt O14920); test: Inhibition of IKKbeta (unknown origin)
T2 sequence (whole entry): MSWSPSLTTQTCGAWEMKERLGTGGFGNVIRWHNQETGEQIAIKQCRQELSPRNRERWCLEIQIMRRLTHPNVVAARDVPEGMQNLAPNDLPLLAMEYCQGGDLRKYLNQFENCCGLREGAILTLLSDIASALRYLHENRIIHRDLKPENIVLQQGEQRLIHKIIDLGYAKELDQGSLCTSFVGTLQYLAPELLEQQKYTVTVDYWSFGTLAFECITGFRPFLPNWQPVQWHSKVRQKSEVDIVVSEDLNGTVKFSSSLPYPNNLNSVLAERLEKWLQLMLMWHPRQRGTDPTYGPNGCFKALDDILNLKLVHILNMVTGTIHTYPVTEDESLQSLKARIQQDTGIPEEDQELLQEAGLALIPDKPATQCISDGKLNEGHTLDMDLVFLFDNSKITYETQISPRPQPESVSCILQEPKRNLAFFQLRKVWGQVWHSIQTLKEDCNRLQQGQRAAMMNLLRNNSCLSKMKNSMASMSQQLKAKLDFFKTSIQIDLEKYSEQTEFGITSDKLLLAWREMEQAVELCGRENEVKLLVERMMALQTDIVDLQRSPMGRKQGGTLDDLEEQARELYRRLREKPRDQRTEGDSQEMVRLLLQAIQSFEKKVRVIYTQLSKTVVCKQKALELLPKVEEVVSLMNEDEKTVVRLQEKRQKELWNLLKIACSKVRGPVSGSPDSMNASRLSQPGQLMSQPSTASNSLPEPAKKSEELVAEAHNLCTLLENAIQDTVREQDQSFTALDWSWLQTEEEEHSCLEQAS

[8] = Metabolic stability in pooled human liver microsomes at 0.5 uM after 10 mins by UV based analysis; type: ADME, Microsome; details: read-out: Stability
[9] = Metabolic stability in pooled mouse liver microsomes at 0.5 uM after 10 mins by UV based analysis; type: ADME, Microsome; details: read-out: Stability
[10] = target: T1, Non-receptor tyrosine-protein kinase TYK2; test: Inhibition of TYK2 JH2 domain in human whole blood assessed as inhibition of IFNalpha-induced STAT5 phosphorylation preincubated for 1 hr followed by IFNalpha stimulation and measured after 15 mins by fluorescence assay; type: tissue-based
[11] = target: 3',5'-cyclic-AMP phosphodiesterase 4D (Homo sapiens, UniProt Q08499); test: Inhibition of [3H]cAMP binding to recombinant human His-Tb fused PDE4D2 (86 to 413 residues) expressed in Escherichia coli using [3H]cAMP as substrate preincubated for 10 mins followed by [3H]cAMP addition and measured after 1 hr by scintillation proximity assay
[12] = Permeability across apical to basolateral side in human Caco2 cells; type: ADME, cell-based; details: Caco-2, read-out: permeability
[13] = Efflux ratio of permeability in human Caco2; type: ADME, cell-based; details: Caco-2
[14] = Metabolic stability in human liver microsomes assessed as parent compound remaining after 10 mins; type: ADME, Microsome; details: read-out: Stability
[15] = Metabolic stability in rat liver microsomes assessed as parent compound remaining after 10 mins; type: ADME, Microsome; details: read-out: Stability
[16] = Metabolic stability in mouse liver microsomes assessed as parent compound remaining after 10 mins; type: ADME, Microsome; details: read-out: Stability
[17] = Protein binding in human plasma assessed as unbound fraction; type: ADME, cell-free
[18] = Cmax in mouse at 10 mg/kg, po; type: ADME, organism-based; design: dose 10 mg/kg, route oral; details: in vivo
[19] = AUClast in mouse at 10 mg/kg, po; type: ADME, organism-based; design: dose 10 mg/kg, route oral, time 0 - last; details: in vivo

T1 sequence (P29597 whole entry, the tested form may be a part): as the sequence (P29597 whole entry) above

| SMILES | IC50 [1] | IC50 [2] | IC50 [3] | IC50 [4] | IC50 (JAK2/TYK2) | IC50 (JAK1/TYK2) | IC50 (JAK3/JAK1) | IC50 (JAK2/JAK1) | also measured |
| --- | --- | --- | --- | --- | --- | --- | --- | --- | --- |
| NC(=O)c1ccccc1Nc1cc(Nc2ccc(F)cn2)ncc1C(N)=O | 0.46 nM | 15 nM | 26 nM | 24 nM | 89 nM | 37 nM | 400 nM | 210 nM | EC50 [5]: 6.6 nM; Ki [6]: 0.06 nM; inhibition [7]: inactive; remaining at 10 min, 0.5 µM [8]: > 80%; remaining at 10 min, 0.5 µM [9]: > 80% |
| CNC(=O)c1cnc(Nc2ccc(F)cn2)cc1Nc1ccccc1C(N)=O | 1.3 nM | > 2000 nM | > 2000 nM | > 2000 nM | 660 nM | 320 nM | > 12500 nM | > 12500 nM | IC50 [10]: 530 nM; IC50 [11]: 10400 nM; Papp A→B [12]: < 1.5 ×10⁻⁶ cm/s; efflux ratio [13]: > 35; remaining at 10 min [14]: 94%; remaining at 10 min [15]: 83%; remaining at 10 min [16]: 82%; fraction unbound [17]: 0.263; Cmax [18]: 36 nM; AUC(0-t) [19]: 0.15 µM·h |
